Legend:
XOR [1] = molecular target: T1, XOR (Bos taurus, UniProt P80457); test: XOR kinetics with phenazine methosulfate / cytochrome c reduction (550 nm); assay type: biochemical, bovine; conditions: XOR, PMS
T1 construct: Bovine milk was obtained from the animal farm of the Nippon Veterinary and Life Science University; from tissue; host or cells: bovine milk
Description: Therefore, phenazine methosulfate was used to induce direct, rapid reoxidation of the molybdenum center ([22], [23]).
Bovine milk was obtained from the animal farm of the Nippon Veterinary and Life Science University. […] The dehydrogenase form of the enzyme (XDH) was obtained by reacting XO immediately upon purification with 5 mM DTT at pH 8.5, 25 °C for 1 h. XO and XDH assays were carried out at 25 °C under aerobic conditions. […] A total of 500 μM β-NAD^+ was added to the same reaction solution for XDH activity. Physiological conditions such as pH 7.4 (0.1 M potassium phosphate buffer (KPB), 0.2 mM EDTA) and the addition of 50 μM β-NADH were also used. […] In addition, the enzyme reaction solution was quenched with perchloric acid and neutralized with K2CO3, with products analyzed using HPLC as described below. Spectrophotometric data were analyzed using UV-Probe software Ver. 2.70 or LabSolutions UV-Vis Ver. […] Kinetic parameters were determined from nonlinear curve fits of raw data using GraphPad Prism 9 software.
A295 indicates the concentration of uric acid yielded by XOR. […] A295 indicates the concentration of uric acid yielded by XOR. Figure S2. The XOR inhibition mode of oxypurinol.A–G, Lineweaver-Burk plots were generated to visualize data and estimated the inhibition patterns. Data are representative of least two independent experiments. […] Figure S3. […] B, mode of inhibition of oxypurinol on the inosine degradation reaction of PNP. […] 0, 250, 375, 500, 750 and 1000 μM of oxypurinol were used. […] The rate of NAD^+ conversion to NADH was measured at A340 nm.

XOR [2] = conditions: read-out: Ki for the conversion of xanthine to uric acid; cited from earlier work
[3] = molecular target: T2, Purine nucleoside phosphorylase (PNP) (Homo sapiens, UniProt P00491); set-up: method as in PMID 5653179, PMID 121041; conditions: cited from earlier work
T2 construct: purchased Sigma-Aldrich; host or cells: E. coli
T2 sequence (P00491 1-289): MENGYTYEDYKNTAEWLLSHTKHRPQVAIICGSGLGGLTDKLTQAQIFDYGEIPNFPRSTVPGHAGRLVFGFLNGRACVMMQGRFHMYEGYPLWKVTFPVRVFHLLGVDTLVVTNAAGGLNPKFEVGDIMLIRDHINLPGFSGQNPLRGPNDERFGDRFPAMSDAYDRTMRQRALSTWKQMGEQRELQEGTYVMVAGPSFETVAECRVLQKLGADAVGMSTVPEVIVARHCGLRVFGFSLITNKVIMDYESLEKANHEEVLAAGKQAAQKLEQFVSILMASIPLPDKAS

T1 sequence (P80457 whole entry): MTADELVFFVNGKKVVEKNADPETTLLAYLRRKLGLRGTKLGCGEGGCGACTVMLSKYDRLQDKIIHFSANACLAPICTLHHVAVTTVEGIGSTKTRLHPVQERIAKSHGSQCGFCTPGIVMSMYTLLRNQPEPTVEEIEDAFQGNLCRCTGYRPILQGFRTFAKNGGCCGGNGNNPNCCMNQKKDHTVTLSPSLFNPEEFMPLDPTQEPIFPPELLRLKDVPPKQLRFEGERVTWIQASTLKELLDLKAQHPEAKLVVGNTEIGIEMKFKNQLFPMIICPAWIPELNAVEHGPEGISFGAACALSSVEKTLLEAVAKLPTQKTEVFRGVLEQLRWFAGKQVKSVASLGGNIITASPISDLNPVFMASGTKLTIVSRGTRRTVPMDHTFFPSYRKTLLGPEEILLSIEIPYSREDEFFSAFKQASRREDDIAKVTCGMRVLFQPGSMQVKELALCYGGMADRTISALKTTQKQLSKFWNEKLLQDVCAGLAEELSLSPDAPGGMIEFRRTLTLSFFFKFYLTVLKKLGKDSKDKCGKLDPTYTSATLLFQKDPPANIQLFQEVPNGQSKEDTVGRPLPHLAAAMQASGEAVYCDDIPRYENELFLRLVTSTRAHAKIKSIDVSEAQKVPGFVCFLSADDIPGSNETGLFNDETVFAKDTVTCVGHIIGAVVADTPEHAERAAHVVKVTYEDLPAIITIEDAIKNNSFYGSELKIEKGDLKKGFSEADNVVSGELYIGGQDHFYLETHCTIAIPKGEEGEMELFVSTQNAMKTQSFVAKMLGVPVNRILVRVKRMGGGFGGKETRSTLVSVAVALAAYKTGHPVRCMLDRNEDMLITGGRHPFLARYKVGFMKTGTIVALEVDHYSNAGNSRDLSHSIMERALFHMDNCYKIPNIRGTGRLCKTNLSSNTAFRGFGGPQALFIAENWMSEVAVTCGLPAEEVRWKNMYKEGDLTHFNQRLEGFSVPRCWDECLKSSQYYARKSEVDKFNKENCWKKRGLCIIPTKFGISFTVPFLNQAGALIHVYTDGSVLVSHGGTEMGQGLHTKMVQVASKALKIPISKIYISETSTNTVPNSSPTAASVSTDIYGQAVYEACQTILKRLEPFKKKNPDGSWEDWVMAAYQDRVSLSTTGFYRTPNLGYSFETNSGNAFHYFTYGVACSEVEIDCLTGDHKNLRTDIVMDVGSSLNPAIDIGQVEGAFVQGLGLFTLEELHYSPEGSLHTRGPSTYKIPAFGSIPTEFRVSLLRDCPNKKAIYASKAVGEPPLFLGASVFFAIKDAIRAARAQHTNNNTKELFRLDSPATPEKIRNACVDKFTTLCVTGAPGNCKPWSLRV

Cc1nc(-c2ccc(OCC(C)C)c(C#N)c2)sc1C(=O)O [Febuxostat]
Types of inhibition (XOR [1]; substrate hypoxanthine): Mixed | Types of inhibition (XOR [1]; substrate xanthine): Mixed

COc1cc(-c2cnn3c(=O)nc[nH]c23)ccc1[S+]([O-])c1ccccc1 (stereo not shown) [BOF]
Ki (XOR [2]): < 0.01 µM

O=c1ncnc2n([C@H]3O[C@@H](CO)[C@H](O)[C@@H]3O)[nH]cc1-2 [ribosyl derivative]
Ki [3]: > 200 µM
